Assay: Phase 1/2 study in mCRPC participants: safety
[1] = all-causality TEAEs, Phase 1, N = 34
[2] = all-causality TEAEs, Phase 2, N = 13

COc1cc(O[C@H]2C(C)(C)[C@H](NC(=O)c3ccc(N4CCC(CN5CCN(c6ccc(C(=O)N[C@H]7CCC(=O)NC7=O)c(F)c6)CC5)CC4)cc3)C2(C)C)ccc1C#N [Compound A, 4-(4-((1-(4-(((1R,3R)-3-(4-cyano-3-methoxyphenoxy)-2,2,4,4-tetramethylcyclobutyl)carbamoyl)phenyl)piperidin-4-yl)methyl)piperazin-1-yl)-N—((S)-2,6-dioxopiperidin-3-yl)-2-fluorobenzamide]
Fatigue: Grade 5 [1]: 0 participants | Gastrointestinal disorders: Any Grade [1]: 15 participants | Gastrointestinal disorders: Grade 3 [1]: 2 participants | Gastrointestinal disorders: Grade 4 [1]: 0 participants | Gastrointestinal disorders: Grade 5 [1]: 0 participants | General disorders and administration site conditions: Any Grade [1]: 16 participants | General disorders and administration site conditions: Grade 3 [1]: 1 participants | General disorders and administration site conditions: Grade 4 [1]: 0 participants | General disorders and administration site conditions: Grade 5 [1]: 0 participants | Hyponatraemia: Any Grade [1]: 4 participants | Hyponatraemia: Grade 3 [1]: 0 participants | Hyponatraemia: Grade 4 [1]: 0 participants | Hyponatraemia: Grade 5 [1]: 0 participants | Hypophosphataemia: Any Grade [1]: 4 participants | Hypophosphataemia: Grade 3 [1]: 0 participants | Hypophosphataemia: Grade 4 [1]: 0 participants | Hypophosphataemia: Grade 5 [1]: 0 participants | Insomnia: Any Grade [1]: 5 participants | Insomnia: Grade 3 [1]: 0 participants | Insomnia: Grade 4 [1]: 0 participants | Insomnia: Grade 5 [1]: 0 participants | Investigations: Any Grade [1]: 19 participants | Investigations: Grade 3 [1]: 1 participants | Investigations: Grade 4 [1]: 1 participants | Investigations: Grade 5 [1]: 0 participants | Lymphocyte count decreased: Any Grade [1]: 4 participants | Lymphocyte count decreased: Grade 3 [1]: 0 participants | Lymphocyte count decreased: Grade 4 [1]: 1 participants | Lymphocyte count decreased: Grade 5 [1]: 0 participants | Metabolism and nutrition disorders: Any Grade [1]: 15 participants | Metabolism and nutrition disorders: Grade 3 [1]: 1 participants | Metabolism and nutrition disorders: Grade 4 [1]: 0 participants | Metabolism and nutrition disorders: Grade 5 [1]: 0 participants | Nausea: Any Grade [1]: 7 participants | Nausea: Grade 3 [1]: 0 participants | Nausea: Grade 4 [1]: 0 participants | Nausea: Grade 5 [1]: 0 participants | Neutrophil count decreased: Any Grade [1]: 4 participants | Neutrophil count decreased: Grade 3 [1]: 0 participants | Neutrophil count decreased: Grade 4 [1]: 0 participants | Neutrophil count decreased: Grade 5 [1]: 0 participants | Participants with any TEAEs: Any Grade [1]: 33 participants | Participants with any TEAEs: Grade 3 [1]: 10 participants | Participants with any TEAEs: Grade 4 [1]: 2 participants | Participants with any TEAEs: Grade 5 [1]: 1 (2.9) participants | Psychiatric disorders: Any Grade [1]: 7 participants | Psychiatric disorders: Grade 3 [1]: 0 participants | Psychiatric disorders: Grade 4 [1]: 0 participants | Psychiatric disorders: Grade 5 [1]: 0 participants | Rash maculo-papular: Any Grade [1]: 4 participants | Rash maculo-papular: Grade 3 [1]: 0 participants | Rash maculo-papular: Grade 4 [1]: 0 participants | Rash maculo-papular: Grade 5 [1]: 0 participants | Respiratory, thoracic and mediastinal disorders: Any Grade [1]: 6 participants | Respiratory, thoracic and mediastinal disorders: Grade 3 [1]: 2 participants | Respiratory, thoracic and mediastinal disorders: Grade 4 [1]: 0 participants | Respiratory, thoracic and mediastinal disorders: Grade 5 [1]: 0 participants | Skin and subcutaneous tissue disorders: Any Grade [1]: 10 participants | Skin and subcutaneous tissue disorders: Grade 3 [1]: 0 participants | Skin and subcutaneous tissue disorders: Grade 4 [1]: 0 participants | Skin and subcutaneous tissue disorders: Grade 5 [1]: 0 participants | Abdominal pain: Any Grade [2]: 2 participants | Abdominal pain: Grade 3 [2]: 1 participants | Abdominal pain: Grade 4 [2]: 0 participants | Abdominal pain: Grade 5 [2]: 0 participants | Alopecia: Any Grade [2]: 2 participants | Alopecia: Grade 3 [2]: 0 participants | Alopecia: Grade 4 [2]: 0 participants | Alopecia: Grade 5 [2]: 0 participants | Anaemia: Any Grade [2]: 4 participants | Anaemia: Grade 3 [2]: 0 participants | Anaemia: Grade 4 [2]: 0 participants | Anaemia: Grade 5 [2]: 0 participants | Blood alkaline phosphatase increased: Any Grade [2]: 3 participants | Blood alkaline phosphatase increased: Grade 3 [2]: 0 participants | Blood alkaline phosphatase increased: Grade 4 [2]: 0 participants | Blood alkaline phosphatase increased: Grade 5 [2]: 0 participants | Blood and lymphatic system disorders: Any Grade [2]: 4 participants | Blood and lymphatic system disorders: Grade 3 [2]: 0 participants | Blood and lymphatic system disorders: Grade 4 [2]: 0 participants | Blood and lymphatic system disorders: Grade 5 [2]: 0 participants | Diarrhoea: Any Grade [2]: 3 participants | Diarrhoea: Grade 3 [2]: 0 participants | Diarrhoea: Grade 4 [2]: 0 participants | Diarrhoea: Grade 5 [2]: 0 participants | Dysgeusia: Any Grade [2]: 3 participants | Dysgeusia: Grade 3 [2]: 0 participants | Dysgeusia: Grade 4 [2]: 0 participants | Dysgeusia: Grade 5 [2]: 0 participants | Fatigue: Any Grade [2]: 2 participants | Fatigue: Grade 3 [2]: 0 participants | Fatigue: Grade 4 [2]: 0 participants | Fatigue: Grade 5 [2]: 0 participants | Gastrointestinal disorders: Any Grade [2]: 7 participants | Gastrointestinal disorders: Grade 3 [2]: 1 participants | Gastrointestinal disorders: Grade 4 [2]: 0 participants | Gastrointestinal disorders: Grade 5 [2]: 0 participants | General disorders and administration site conditions: Any Grade [2]: 2 participants | General disorders and administration site conditions: Grade 3 [2]: 0 participants | General disorders and administration site conditions: Grade 4 [2]: 0 participants | General disorders and administration site conditions: Grade 5 [2]: 0 participants | Haematuria: Any Grade [2]: 3 participants | Haematuria: Grade 3 [2]: 0 participants | Haematuria: Grade 4 [2]: 0 participants | Haematuria: Grade 5 [2]: 0 participants | Hypertension: Any Grade [2]: 2 participants | Hypertension: Grade 3 [2]: 1 participants | Hypertension: Grade 4 [2]: 0 participants | Hypertension: Grade 5 [2]: 0 participants | Investigations: Any Grade [2]: 5 participants | Investigations: Grade 3 [2]: 0 participants | Investigations: Grade 4 [2]: 0 participants | Investigations: Grade 5 [2]: 0 participants | Nausea: Any Grade [2]: 2 participants | Nausea: Grade 3 [2]: 0 participants | Nausea: Grade 4 [2]: 0 participants | Nausea: Grade 5 [2]: 0 participants | Nervous system disorders: Any Grade [2]: 3 participants | Nervous system disorders: Grade 3 [2]: 0 participants | Nervous system disorders: Grade 4 [2]: 0 participants | Nervous system disorders: Grade 5 [2]: 0 participants | Participants with any TEAEs: Any Grade [2]: 11 participants | Participants with any TEAEs: Grade 3 [2]: 2 participants | Participants with any TEAEs: Grade 4 [2]: 0 participants | Participants with any TEAEs: Grade 5 [2]: 0 participants | Proteinuria: Any Grade [2]: 2 participants | Proteinuria: Grade 3 [2]: 0 participants | Proteinuria: Grade 4 [2]: 0 participants | Proteinuria: Grade 5 [2]: 0 participants | Renal and urinary disorders: Any Grade [2]: 6 participants | Renal and urinary disorders: Grade 3 [2]: 0 participants | Renal and urinary disorders: Grade 4 [2]: 0 participants | Renal and urinary disorders: Grade 5 [2]: 0 participants | Skin and subcutaneous tissue disorders: Any Grade [2]: 2 participants | Skin and subcutaneous tissue disorders: Grade 3 [2]: 0 participants | Skin and subcutaneous tissue disorders: Grade 4 [2]: 0 participants | Skin and subcutaneous tissue disorders: Grade 5 [2]: 0 participants | Vascular disorders: Any Grade [2]: 2 participants | Vascular disorders: Grade 3 [2]: 1 participants | Vascular disorders: Grade 4 [2]: 0 participants | Vascular disorders: Grade 5 [2]: 0 participants | Vomiting: Any Grade [2]: 2 participants | Vomiting: Grade 3 [2]: 0 participants | Vomiting: Grade 4 [2]: 0 participants | Vomiting: Grade 5 [2]: 0 participants | deaths considered related to Compound A (study start until data cut-off): No deaths were considered related to Compound A | deaths reported (study start until data cut-off): Five

Source: patent publication US20240180900A1, “COMPOUNDS AND METHODS FOR THE TARGETED DEGRADATION OF ANDROGEN RECEPTOR” (Arvinas Operations, Inc., priority 2022, published 2024)
